Results published in patent US20250296938A1, “Compounds that Interact with the Ras Superfamily for the Treatment of Cancers, Inflammatory Diseases, Rasopathies, and Fibrotic Disease” (SHY Therapeutics, LLC, priority 2018, published 2025).
Like-named read-outs stand apart in the source and are kept apart here.

How the values were obtained:
Test in all cases: Ras GTP binding domain inhibition assay (Cy3-GTP/Cy5-GTP competition)
KRas wild type = test system: KRas wild type; parameters: species or system human; conditions: 20 μM; for KRas wild type % inh.: without SOS (Table 7A); for KRas wild type: % inh.: without SOS
Protocol: (§1) The following method was developed as specific assay for the following proteins: KRas wild type, KRas Q61H mutant, KRas G12C mutant, KRas G12D mutant, HRas wild type, Rac-1, and Rho-A.
(§2) • 25 mM Tris-HCl, pH 7.4 • 27 mM KCl • 137 mM NaCl • 1 mM MgCl2 • 1 mM DTT
(§3) • 50 mM Tris-HCl, pH 7.0 • 1 mM MgCl2 • 1 mM DTT
(§4) The small GTPases proteins: KRas wild type. KRas Q61H mutant, KRas G12C mutant, KRas G12D mutants, HRas wild type, Rac-1, and Rho-A were expressed as His-tagged proteins. In addition, the Guanosine nucleotide Exchange Factor (GEF) Sos protein (residues 556-1049) was expressed as a His-tagged protein. In cells, the guanine nucleotide exchange factor Sos protein promotes activation of Ras proteins by stimulating an exchange of GDP for GTP. The inclusion of Sos to the Ras GTP binding domain inhibition assay may be considered as an alternative representation of physiological cellular conditions for evaluating the inhibitory activity of some of the tested small molecules.
(§5) For the assay, all purified small GTPases proteins were diluted in Buffer-I or Buffer-II to a final concentration of 10-30 μg/mL. 200 μL of each diluted protein was added to a nickel-coated 96-well plate and incubated overnight at 4° C. Then the protein solution was discarded and 200 μL of Buffer-I or Buffer-II was added to each well in the presence of 1% DMSO. Compounds to be tested were added to the protein-coated wells at final concentration of 20 μM, and incubated for 3 hours at room temperature with and without […] of Sos added to the final hour of the incubation. When performing IC50 measurements a serial dilution of all tested concentrations was added. Then Cy3-GTP or Cy5-GTP was added to each well to a final concentration of 100 nM. The labeled GTP was incubated for 45 minutes at room temperature. Following GTP incubation, wells were washed 3× in Buffer-I or Buffer-II and 200 μL of Buffer-I or Buffer-II was added to each well. Following washes, the amount of bound labeled-GTP was measured using a SpectraMax M3 (Molecular Devices).

KRas Q61H mutant = test system: KRas Q61H mutant; parameters: species or system human; conditions: 20 μM
Protocol: as §1, §2, §3, §4, §5

KRas G12C mutant = test system: KRas G12C mutant; parameters: species or system human; conditions: 20 μM
Protocol: as §1, §2, §3, §4, §5

KRas G12D mutant = target: T1, KRas G12D mutant (Homo sapiens, UniProt P01116, G12D); conditions: 20 μM
T1 construct: fused on or other part: His tag, used for capture on nickel-coated plates
Protocol: as §1, §2, §3, §4, §5

[1] = with SOS (Table 7A), read-out: KRas G12D mutant + SOS: % inh.
[2] = without SOS (Table 7A), read-out: KRas G12D mutant: % inh.
[3] = with SOS, read-out: KRas G-12D mutant + SOS: % inh.
[4] = without SOS, read-out: KRas G12D mutant: % inh.

Compound | KRas wild type + SOS: % inh. (KRas wild type; with SOS (Table 7A)) | KRas wild type % inh. (KRas wild type) | KRas Q61H mutant + SOS: % inh. (KRas Q61H mutant; with SOS (Table 7A)) | KRas Q61H mutant: % inh. (KRas Q61H mutant; without SOS (Table 7A)) | KRas G12C mutant + SOS: % inh. (KRas G12C mutant; with SOS (Table 7A)) | KRas G12C mutant: % inh. (KRas G12C mutant; without SOS (Table 7A)) | inhibition at 20 µM (KRas G12D mutant; [1]) [%] | inhibition at 20 µM (KRas G12D mutant; [2]) [%] | KRas wild type + SOS: % inh. (KRas wild type; with SOS) | KRas wild type: % inh. (KRas wild type) | KRas Q61H mutant + SOS: % inh. (KRas Q61H mutant; with SOS) | KRas Q61H mutant: % inh. (KRas Q61H mutant; without SOS) | KRas G12C mutant + SOS: % inh. (KRas G12C mutant; with SOS) | KRas G12C mutant: % inh. (KRas G12C mutant; without SOS) | inhibition at 20 µM (KRas G12D mutant; [3]) [%] | inhibition at 20 µM (KRas G12D mutant; [4]) [%]
CO[C@H]1C[C@@H](Nc2nc(-c3nccn3C)nc3sc(-c4ccn(C)n4)c(-c4ccccc4)c23)C1.Cl | D (76-100% inhibition) | C (51-75% inhibition) | D (76-100% inhibition) | C (51-75% inhibition) | D (76-100% inhibition) | C (51-75% inhibition) | 51 to 75 | 26 to 50 |  |  |  |  |  |  |  | 
Cn1ccc(-c2sc3nc(-c4nccn4C)nc(N[C@@H]4CC[C@H](O)C4)c3c2-c2ccccc2)n1 (racemic) [drawing 909] | A (1-25% inhibition) | A (1-25% inhibition) | 0 (0% inhibition) | A (1-25% inhibition) | A (1-25% inhibition) | A (1-25% inhibition) | 0 | 0 |  |  |  |  |  |  |  | 
COCCn1cc(Nc2nc(-c3ccccn3)nc(OC)c2OC)cn1 [drawing 793] |  |  |  |  |  |  |  |  | A (1-25% inhibition) | 0 (0% inhibition) | A (1-25% inhibition) | 0 (0% inhibition) | A (1-25% inhibition) | A (1-25% inhibition) | 1 to 25 | 1 to 25
COc1nc(-c2ccccn2)nc(Nc2cnn(C)c2)c1OC [drawing 794] |  |  |  |  |  |  |  |  | 0 (0% inhibition) | A (1-25% inhibition) | A (1-25% inhibition) | 0 (0% inhibition) | A (1-25% inhibition) | 0 (0% inhibition) | 0 | 0
COCCNc1nc(-c2cn(C)cn2)nc2sc(-c3cc(OC)ccc3Cl)c(-c3ccc(OC)cc3)c12 [drawing 795] |  |  |  |  |  |  |  |  | D (76-100% inhibition) | B (26-50% inhibition) | D (76-100% inhibition) | B (26-50% inhibition) | D (76-100% inhibition) | B (26-50% inhibition) | 26 to 50 | 26 to 50
COC1CCN(c2nc(-c3nccn3C)nn3cc(-c4ccccc4)c(-c4ccccc4)c23)C1 (stereo not shown) [drawing 796] |  |  |  |  |  |  |  |  | A (1-25% inhibition) | B (26-50% inhibition) | B (26-50% inhibition) | B (26-50% inhibition) | B (26-50% inhibition) | A (1-25% inhibition) | 1 to 25 | 26 to 50
COCCNc1nc(-c2cn(C)cn2)nc2sc(-c3cccc(OC)c3Cl)c(-c3ccc(OC)cc3)c12 [drawing 797] |  |  |  |  |  |  |  |  | D (76-100% inhibition) | C (51-75% inhibition) | D (76-100% inhibition) | C (51-75% inhibition) | D (76-100% inhibition) | B (26-50% inhibition) | 26 to 50 | 26 to 50
CC(C)CN(C)C(=O)c1nc(-c2ccccn2)nc(O)c1O [drawing 798] |  |  |  |  |  |  |  |  | A (1-25% inhibition) | B (26-50% inhibition) | B (26-50% inhibition) | B (26-50% inhibition) | B (26-50% inhibition) | C (51-75% inhibition) | 26 to 50 | 26 to 50
CN(Cc1ccccc1)C(=O)c1nc(-c2ccccn2)nc(O)c1O [drawing 799] |  |  |  |  |  |  |  |  | B (26-50% inhibition) | C (51-75% inhibition) | B (26-50% inhibition) | C (51-75% inhibition) | B (26-50% inhibition) | C (51-75% inhibition) | 26 to 50 | 26 to 50
O=C(c1nc(-c2ccccn2)nc(O)c1O)N1CCOCC1 [drawing 800] |  |  |  |  |  |  |  |  | A (1-25% inhibition) | C (51-75% inhibition) | A (1-25% inhibition) | B (26-50% inhibition) | A (1-25% inhibition) | B (26-50% inhibition) | 26 to 50 | 26 to 50
COc1cccc(Oc2nc(-c3ccccn3)nc(O)c2OC)c1 [drawing 801] |  |  |  |  |  |  |  |  | C (51-75% inhibition) | D (76-100% inhibition) | C (51-75% inhibition) | D (76-100% inhibition) | C (51-75% inhibition) | C (51-75% inhibition) | 51 to 75 | 76 to 100
COc1c(O)nc(-c2ccccn2)nc1Oc1cccnc1 [drawing 802] |  |  |  |  |  |  |  |  | B (26-50% inhibition) | D (76-100% inhibition) | C (51-75% inhibition) | D (76-100% inhibition) | C (51-75% inhibition) | C (51-75% inhibition) | 51 to 75 | 51 to 75
COc1c(O)nc(-c2ccccn2)nc1Oc1cnn(C)c1 [drawing 803] |  |  |  |  |  |  |  |  | B (26-50% inhibition) | D (76-100% inhibition) | C (51-75% inhibition) | D (76-100% inhibition) | C (51-75% inhibition) | C (51-75% inhibition) | 51 to 75 | 51 to 75
COc1c(O)nc(-c2ccccn2)nc1Oc1ccc2ncccc2c1 [drawing 804] |  |  |  |  |  |  |  |  | B (26-50% inhibition) | C (51-75% inhibition) | C (51-75% inhibition) | C (51-75% inhibition) | C (51-75% inhibition) | C (51-75% inhibition) | 26 to 50 | 51 to 75
